In article PMC10567917 (Archives of Toxicology, 2023):
Several values for one entry are separate records, joined by “and”; a condition that tells them apart may be missing. Identical values can stand only once.

Columns and labels:
[1] = tested on: primary human hepatocytes; type: in vitro ADME
[2] = tested on: primary mouse hepatocytes
[3] = tested on: primary rat hepatocytes
[4] = tested on: primary human hepatocytes
[5] = tested on: intracellular proteins of primary human hepatocytes
[6] = tested on: rainbow trout; conditions: in vivo; cited from earlier work

COc1cc2c(c3oc(=O)c4c(c13)CCC4=O)[C@@H]1C=CO[C@@H]1O2 [AFB1, Aflatoxin B1]
estimated intracellular concentration of AFB1 [1]: 1 mM | AFB1 in culture medium [2]: no longer detectable | AFB1 remaining in culture medium [2]: 0.2 µM | time up to which AFB1 was detectable in culture medium [2]: up to 6 h | AFB1 remaining in culture medium [3]: 3.48 µM | AFB1 remaining in culture medium [4]: 8.54 µM | concentration in culture medium [4]: 636 nM

COc1cc2c(c3oc(=O)c4c(c13)CCC4=O)[C@H]1[C@@H](O2)OC(SCC(NC(=O)CCC(N)C(=O)O)C(=O)NCC(=O)O)[C@@H]1O (stereo partly shown) [AFB1-GSH, AFB1-glutathione]
intracellular detection [1]: not detected | concentration in culture medium [3]: 72 nM | concentration in culture medium (plateau) [3]: 415 nM | detection in culture medium [4]: not detected

COc1cc(O)c(C2=CC(=O)N(CCCC[C@H](N)C(=O)O)C2)c2oc(=O)c3c(c12)CCC3=O [AFB1-Lys, AFB1-lysine]
detection in culture medium [3]: detected only in trace amounts | AFB1-Lys in proteins of cell lysate [5]: around 1.0 pmol

COc1cc2c(c3oc(=O)c4c(c13)CCC4=O)[C@H]1[C@@H](O2)OC(SCC(NC(C)=O)C(=O)O)[C@@H]1O (stereo partly shown) [AFB1-NAC, AFB1-N-acetylcysteine]
detection in culture medium [4]: not detected

COc1cc2c(c3oc(=O)c4c(c13)CCC4=O)C1(O)C=COC1O2 (stereo not shown) [AFM1, aflatoxin M1]
maximum concentration in culture medium [2]: 353 nM | concentration in culture medium [4]: 33 nM and 46 nM

O=C1CCc2c1c(=O)oc1c3c(cc(O)c21)O[C@H]1OC=C[C@@H]31 [AFP1, aflatoxin P1]
maximum concentration in culture medium [2]: 896 nM | detection in culture medium [3]: detected only in trace amounts | detection in culture medium [4]: just formed in trace amounts

O=C1CCc2c1c(=O)oc1c3c(cc(O[C@@H]4O[C@H](C(=O)O)[C@@H](O)[C@H](O)[C@H]4O)c21)O[C@H]1OC=C[C@@H]31 [AFP1-Glc, AFP1 glucuronide]
AFP1-Glc level in mouse samples relative to rat samples [2]: about 100 fold | detection of AFP1-Glc [4]: no AFP1-Glc was detectable

COc1cc2c(c3oc(=O)c4c(c13)[C@@H](O)CC4=O)[C@@H]1C=CO[C@@H]1O2 [AFQ1, aflatoxin Q1]
maximum concentration in culture medium [2]: 25 nM | Formation rate [3]: 87 pmol/h and 74 700 pmol/h | concentration in culture medium [3]: 112 nM | carcinogenic potency relative to AFB1 [6]: about 1%
